Values joined by “and” are separate entries in the source; they are usually repeats but may differ in a detail not shown here. Equal values may be shown once. “Also recorded” adds a separate entry of the source.
Key:
HT1080 cells = assay: BrdU incorporation (DNA synthesis) in HT1080 cells; assay type: cell-based, human; conditions: 18 h, EGF 100 ng/ml, peptide 1 nM
Method: Androgen challenging of these cells neither induces AR nuclear translocation, nor enhances DNA synthesis while robustly increases cell motility. In A, quiescent HT1080 cells were transfected with 3416 or 3424 ARE-luc constructs with or without hAR expressing plasmid. Details of these procedures have been described in Methods. Cells were left un-stimulated or stimulated for 18 h with 10 nM R1881. The luciferase activity was assayed, normalized using beta-gal as an internal control, and expressed as fold induction. Means and SEM are shown; n represents the number of experiments. […] In B, quiescent HT1080 cells on coverslips were left untreated or treated for 60 min with 10 nM R1881. Cells were analysed by IF for AR (left images) or Hoechst (right images). Images are representative of three independent experiments. […] In C, BrdU incorporation in cells on coverslips was analysed and expressed as in FIG. 2. In D, the number of migrated cells was evaluated and expressed as relative increase. […]
FIG. 3: Inhibition by S1 peptide of AR/Src complex, Src activation and DNA synthesis triggered by EGF in HT1080 cells. […] Lower section in A, lysates were immune-precipitated with anti EGFR Ab and proteins in immune-complexes were detected using antibodies against the indicated proteins. […] After in vivo pulse with BrdU (100 μM; Sigma), BrdU incorporation was analyzed by IF and expressed as % of total nuclei. […]

PC-3 cells = assay: Orthotopic PC-3 prostate cancer model: tumor volume and lymph node metastases; assay type: in vivo, BALB/c nude mice; conditions: for incidence of lymph node metastasis: vs vehicle; for Total tumor volumes during the study: animals 2.x (0.04 mg/kg by heads of Tables 2-3)
Method: Six week-old immunodeficient BALB/c nude mice were allocated to six 15-mice groups according to the body weight. PC-3 cells were inoculated orthotopically into prostates of the mice. Dosing (s.c.) was started at study day 1 and continued daily for 28 days.
Mice were weighed twice a week, and after 4 weeks, mice were sacrificed. Gross necropsy was performed to all animals at the end of the study, and all macroscopic signs were recorded. Volume of the prostate tumors was measured and prostate as well as prostate draining lymph nodes were collected for histology. The number of metastasis in lymph nodes was determined under microscope.
The 0.01 mg/ml, 0.1 mg/ml, 1 mg/ml, 2.5 mg/ml and 5 mg/ml dosing suspensions were prepared from test peptide VAL001 by dilution to PBS. […] New dosing suspensions were prepared every week.
An animal model was used that can be effectively used for testing the effects of cancer drug candidates on the primary tumor growth in prostate microenvironment. In this model, human prostate cancer cells are inoculated into prostate of 4-5 week old male BALB/c nude mice. This mouse strain is immunodeficient, allowing rapid growth and spread of the human cancer cells. Within four weeks after the inoculation, animal develop large tumor to prostate and metastases to regional iliac and sacral lymph nodes. The animals are sacrificed at 4 weeks after inoculation, and their prostate with tumor and regional lymph nodes are collected for further histomorphometric analysis.
Male BALB/c nude mice (BALB/c OlaHsd-Foxn1^nu, obtained from Harlan, The Netherlands) were used for this study. The age of the animals was 6-7 weeks, and their body weights were approximately 16-23 g at the beginning of the study. The mice were specific pathogen free (SPF) and isolator-reared animals. Correct age and good clinical health were qualifications for the study. The acclimatization period for the mice was 4 days. Allocation to groups was performed by randomization procedure based on body weight. The animals were marked with ear marks. For orthotopic inoculations the mice were anesthetized with inhalation of isoflurane. Analgesia was provided before and 2 days after the orthotopic inoculation with buprenorphine: 0.1 mg/kg, s.c.
At the end of the study, the animals were weighed and sacrificed with cervical dislocation under anesthesia. Necropsy was carried out in all animals. Macroscopic findings were recorded on the follow-up forms. Tissue samples from prostate with tumor and lymph nodes were collected for histology and number of metastases in lymph nodes was determined.
Statistical analysis was performed with R: A Language and Environment for Statistical Computing (version 2.14.2; R Development Core Team, Vienna, Austria). The mean and standard deviation of the body weights and the tumor volumes at sacrifice were determined. Normality of the distributions and homogeneity of variance were checked before further analyses. In case of violating these assumptions, either log transformation or other appropriate transformation (e.g. square root, reciprocal) was applied. If the assumptions were fulfilled as such or after transformation, one-way ANOVA was used to study if the values obtained between the groups were statistically different (with p<0.05). If differences were found, Tukey's HSD test was used for pairwise comparison between all groups. If the assumptions were not fulfilled even after the transformations described above, the non-parametric Kruskal-Wallis test followed by Mann-Whitney U-test were used.
The statistical analysis of incidence of lymph node metastases was done using Fisher's exact test as one-sided test in which the null hypothesis reflected the assumption that the treatment […].

[1] = tested on: offspring from dosed females; conditions: mouse, in vivo
Source text: Offspring from dosed females were mated and checked for fertility to determine possible inheritable effects.

Ac-PPPHPHARIK-NH2 [VAL001]
EGF-triggered DNA synthesis (BrdU incorporation) (HT1080 cells): inhibits | inhibition of the development of lymph node metastases (PC-3 cells; 0.04 mg/kg s.c. daily 28 days): 50% | incidence of lymph node metastasis (PC-3 cells; 0.04 mg/kg s.c. daily 28 days, Fisher's exact test p=0.01643): statistically significantly less; also recorded: inhibited statistically significantly | inhibition of the development of lymph node metastases (PC-3 cells; 0.4 mg/kg s.c. daily 28 days): 50% | incidence of lymph node metastasis (PC-3 cells; 0.4 mg/kg s.c. daily 28 days, Fisher's exact test p=0.03913): statistically significantly less; also recorded: inhibited statistically significantly | decrease in tumor volume (PC-3 cells; 0.4 mg/kg s.c. daily 28 days, not statistically significant): 35% | statistically significant effects on orthotopic tumor growth (PC-3 cells; 0.04-20 mg/kg s.c. daily 28 days): not observed | tumor volumes between the treatment groups (PC-3 cells; 0.04-20 mg/kg s.c. daily 28 days, at sacrifice): no statistically significant differences | Total tumor volumes during the study (PC-3 cells; day 5, single animals): 22.3 and 11.5 and 21.5 and 16.9 and 26.7 and 29.3 (2×) and 27.8 | Total tumor volumes during the study (PC-3 cells; day 7, single animals, in mm³ (unit assumed)): 21.1 and 7.8 and 17.8 and 22.0 and 16.9 and 18.3 and 31.2 and 29.6 | Total tumor volumes during the study (PC-3 cells; day 9, single animals, in mm³ (unit assumed)): 28.2 and 18.2 and 32.4 and 21.3 and 29.6 and 57.8 and 76.4 and 34.4 | Total tumor volumes during the study (PC-3 cells; day 12, single animals, in mm³ (unit assumed)): 51.3 and 20.1 and 39.6 and 56.1 and 24.6 and 57.0 and 116.3 and 70.3 | Total tumor volumes during the study (PC-3 cells; day 14, single animals, in mm³ (unit assumed)): 71.8 and 55.8 and 72.5 and 65.8 and 54.7 and 114.0 and 176.1 and 106.7 | Total tumor volumes during the study (PC-3 cells; day 16, single animals, in mm³ (unit assumed)): 87.7 and 70.9 and 140.3 and 85.4 and 62.6 and 167.3 and 183.2 and 112.1 | Total tumor volumes during the study (PC-3 cells; day 19, single animals, in mm³ (unit assumed)): 202.0 and 163.3 and 186.2 and 140.9 and 104.4 and 181.7 and 332.0 and 227.3 | Total tumor volumes during the study (PC-3 cells; day 21, single animals, in mm³ (unit assumed)): 182.3 and 152.1 and 196.2 and 139.5 and 120.6 and 278.5 and 365.1 and 240.1 | Total tumor volumes during the study (PC-3 cells; day 23, single animals, in mm³ (unit assumed)): 158.4 and 95.0 and 289.5 and 181.8 and 127.8 and 278.8 and 386.3 and 323.8 and 345.6 | Total tumor volumes during the study (PC-3 cells; day 26, single animals, in mm³ (unit assumed)): 277.2 and 233.9 and 254.0 and 243.7 and 239.4 and 381.2 and 618.5 and 328.7 and 518.9 | Total tumor volumes during the study (PC-3 cells; day 29, single animals, in mm³ (unit assumed)): 382.9 and 204.8 and 258.0 and 216.8 and 245.1 and 418.0 and 750.0 and 430.6 and 288.0 | fertility of offspring from dosed females [1]: no abnormalities noted

From patent publication US10400008B2, “Modulators of the SRC-kinase activity for preventing or treating metastatic cancer” (Cancer Research Technology Limited, priority 2013, dated 2019)
